Assay results as given in patent publication US8143262B2, “7-(3′,4′-Dialkoxyphenyl)[1,2,4]-triazolo[1,5-A]pyrimidine compounds, process for preparing thereof, and pharmaceutical composition for treating or preventing asthma, chronic obstructive pulmonary disease, arthritis, atopic dermatitis, tumor and degenerative brain diseases comprising the same” (Korea Research Institute of Chemical Technology, priority 2007, dated 2012).

biological target: T1, Human PDE-4d (Homo sapiens, UniProt Q08499); assay: Inhibition of PDE-4 activity ([3H]cAMP hydrolysis, recombinant catalytic domain); type: biochemical; conditions: PDE4d 1 nM, cAMP 250 nM, 34° C., 45 minutes; read-out: IC50 against PDE-4 enzyme
T1 construct: The catalytic domain of PDE4d was cloned to pGEX4T3 (APBiotech) as GST fusion expression vector; GST (N); made in house; host or cells: E. coli BL21, DE3
T1 sequence (Q08499 386-715 limits assumed): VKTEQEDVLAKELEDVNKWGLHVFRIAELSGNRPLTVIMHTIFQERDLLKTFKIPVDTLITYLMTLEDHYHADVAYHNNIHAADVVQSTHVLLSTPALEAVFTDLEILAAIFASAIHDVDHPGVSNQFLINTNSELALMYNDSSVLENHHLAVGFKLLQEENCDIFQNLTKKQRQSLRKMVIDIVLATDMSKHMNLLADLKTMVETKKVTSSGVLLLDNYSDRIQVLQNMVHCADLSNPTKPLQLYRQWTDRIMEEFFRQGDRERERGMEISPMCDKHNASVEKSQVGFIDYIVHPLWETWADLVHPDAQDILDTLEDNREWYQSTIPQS
Protocol: Experiment of inhibiting PDE-4 activity was carried out by modifying the method of Loughney (Loughney et al., Journal of Biological Chemistry, 1996, 271(2), 796-806). Human PDE-4d prepared by means of gene recombination technology was used as PDE-4d
The catalytic domain of PDE4d was cloned to pGEX4T3 (APBiotech) as GST fusion expression vector, and then PDE4d gene was transformed to E. coli BL21, DE3. The strain was cultured at 37° C. in LB medium, and when OD reached about 0.3˜0.5, the temperature was lowered to 18° C. to induce expression of PDE4d by using 0.5 mM IPTG. After 15 hours from induction of the expression, cells with PDE4d expressed were recovered. The cells were suspended in a buffer solution (50 mM Tris, pH 8.0, 0.4M NaCl, 5 mM DTT), and crushed, centrifuged and purified. The columns used for the purification were Q-cephalose (APBiotech), Glutanione-cephalose (APBiotech) and Superdex200 gel permeation chromatography (APBiotech), in this order.
In order to measure the ability of individual compound to inhibit PDE4d activity, PDE4d 1 nM and cAMP (Sigma) 250 nM as substrate were added to the reaction buffer (50 mM Tris-HCl (pH 7.5) and 4 mM MgCl2), and individual compound obtained from Example 1 was added in a concentration from 1 to 50 μM thereto, and the mixture was reacted at 34° C. for 45 minutes. Total reaction solution was 60 μl. As to cAMP, a mixture with the ratio of [^3H]cAMP (Amersham, 1 μCi/μl) to cAMP (hot:cold, that is, isotope:non-isotope) being 1:200 was used. Then, the reaction was quenched by heating at 95° C. for 2 minutes. After cooling the mixture for 3 minutes, 1 mg/ml of Snake Venome (Sigma V0376) (30 μl) was added thereto. After reacting at 34° C. for 30 minutes, 30 μl of the reaction mixture was added to 250 μl of DOWEX 1×2-100 ion exchange resin (Aldrich, previously mixed with distilled water in a ratio of 1:1.6) by portions, and the mixture was vigorously stirred for 2 minutes. After settling the resin down, the supernatant (130 μl) was added to 2 ml of scintillation cocktail (Packard), and the mixture was thoroughly mixed, and then measured by using beta-counter. With respect to the enzyme activity of control group (experiment carried out without adding compound of Chemical Formula (1)), the concentration of each test compound to inhibit 50% of enzyme activity was determined as IC50.

IC50 [µM] | SMILES
0.023 | Fc1cccc(-c2nc3nccc(-c4ccc(OC(F)F)c(OCC5CC5)c4)n3n2)c1 [Compound 106, 7-[3-(Cyclopropylmethoxy)-4-(difluoromethoxy)phenyl]-2-(3-fluorophenyl)-[1,2,4]triazolo[1,5-a]pyrimidine]
0.03 | O=C(O)c1ccc(-c2nc3nccc(-c4ccc(OC(F)F)c(OCC5CC5)c4)n3n2)cc1 [Compound 118, 4-[7-{3-(cyclopropylmethoxy)-4-(difluoromethoxy)phenyl}-[1,2,4]triazolo[1,5-a]pyrimidin-2-yl]benzoic acid]
0.042 | Cc1cc(C)cc(-c2nc3nccc(-c4ccc(OC(F)F)c(OCC5CC5)c4)n3n2)c1 [Compound 133, 7-[3-(Cyclopropylmethoxy)-4-(difluoromethoxy)phenyl]-2-(3,5-dimethylphenyl)-[1,2,4]triazolo[1,5-a]pyrimidine]
0.19 | FC(F)Oc1ccc(-c2ccnc3nc(-c4ccc(C(F)(F)F)cc4)nn23)cc1OCC1CC1 [Compound 125, 7-[3-(Cyclopropylmethoxy)-4-(difluoromethoxy)phenyl]-2-(4-trifluoromethylphenyl)-[1,2,4]triazolo[1,5-a]pyrimidine]
0.079 | FC(F)Oc1ccc(-c2ccnc3nc(-c4ccncc4)nn23)cc1OCC1CC1 [Compound 103, 7-[3-(Cyclopropylmethoxy)-4-(difluoromethoxy)phenyl]-2-pyridin-4-yl-[1,2,4]triazolo[1,5-a]pyrimidine]
0.17 | N#Cc1ccc(-c2nc3nccc(-c4ccc(OC(F)F)c(OCC5CC5)c4)n3n2)cn1 [Compound 123, 2-(2-cyano-pyridin-5-yl)-7-[3-(cyclopropylmethoxy)-4-(difluoromethoxy)phenyl]-[1,2,4]triazolo[1,5-a]pyrimidine]
0.047 | N#Cc1cccc(-c2nc3nccc(-c4ccc(OC(F)F)c(OC(F)F)c4)n3n2)c1 [Compound 122, 7-(3,4-Bis-difluoromethoxyphenyl)-2-(3-cyanophenyl)-[1,2,4]triazolo[1,5-a]pyrimidine]
0.005 | FC(F)Oc1ccc(-c2ccnc3nc(-c4cccc(I)c4)nn23)cc1OCC1CC1 [Compound 126, 7-[3-(Cyclopropylmethoxy)-4-(difluoromethoxy)phenyl]-2-(3-iodophenyl)-[1,2,4]triazolo[1,5-a]pyrimidine]
0.018 | FC(F)Oc1ccc(-c2ccnc3nc(-c4cccnc4)nn23)cc1OCC1CC1 [Compound 101, 7-[3-(cyclopropylmethoxy)-4-(difluoromethoxy)phenyl]-2-pyridin-3-yl-[1,2,4]triazolo[1,5-a]pyrimidine]
0.006 | COc1cccc(-c2nc3nccc(-c4ccc(OC(F)F)c(OCC5CC5)c4)n3n2)c1 [Compound 107, 7-[3-(Cyclopropylmethoxy)-4-(difluoromethoxy)phenyl]-2-(3-methoxyphenyl)-[1,2,4]triazolo[1,5-a]pyrimidine]
0.014 | FC(F)Oc1ccc(-c2ccnc3nc(-c4cccc(Br)c4)nn23)cc1OCC1CC1 [Compound 121, 2-(3-Bromophenyl)-7-[3-(cyclopropylmethoxy)-4-(difluoromethoxy)phenyl]-[1,2,4]triazolo[1,5-a]pyrimidine]
0.24 | [O-][n+]1cc(-c2nc3nccc(-c4ccc(OC(F)F)c(OCC5CC5)c4)n3n2)ccc1Cl [Compound 108, 3-[7-{3-(Cyclopropylmethoxy)-4-(difluoromethoxy)phenyl}-[1,2,4]triazolo[1,5-a]pyrimidine-2-yl]-6-Chloropyridine-N-oxide]
0.042 | FC(F)Oc1ccc(-c2ccnc3nc(-c4cccnc4)nn23)cc1OCC1CC1 [Compound 111, 3-[7-{3-(cyclopropylmethoxy)-4-(difluoromethoxy)phenyl}-[1,2,4]triazolo[1,5-a]pyrimidin-2-yl]-pyridinium bisulfate]
0.052 | FC(F)Oc1ccc(-c2ccnc3nc(-c4cccnc4Cl)nn23)cc1OCC1CC1 [Compound 105, 2-(2-chloropyridin-3-yl)-7-[3-(cyclopropylmethoxy)-4-(difluoromethoxy)phenyl]-[1,2,4]triazolo[1,5-a]pyrimidine]
0.25 | [O-][n+]1cccc(-c2nc3nccc(-c4ccc(OC(F)F)c(OC(F)F)c4)n3n2)c1 [Compound 130, 3-[7-(3,4-Bis-difluoromethoxyphenyl)-[1,2,4]triazolo[1,5-a]pyrimidine-2-yl]-pyridine-N-oxide]
0.05 | FC(F)Oc1ccc(-c2ccnc3nc(-c4ccc(I)cc4)nn23)cc1OCC1CC1 [Compound 127, 7-[3-(Cyclopropylmethoxy)-4-(difluoromethoxy)phenyl]-2-(4-iodophenyl)-[1,2,4]triazolo[1,5-a]pyrimidine]
0.04 | COc1cc(-c2nc3nccc(-c4ccc(OC(F)F)c(OCC5CC5)c4)n3n2)ccc1C [Compound 134, 7-[3-(Cyclopropylmethoxy)-4-(difluoromethoxy)phenyl]-2-(3-methoxy-4-methylphenyl)-[1,2,4]triazolo[1,5-a]pyrimidine]
0.02 | O=[N+]([O-])c1cccc(-c2nc3nccc(-c4ccc(OC(F)F)c(OCC5CC5)c4)n3n2)c1 [Compound 116, 7-[3-(Cyclopropylmethoxy)-4-(difluoromethoxy)phenyl]-2-(3-nitrophenyl)-[1,2,4]triazolo[1,5-a]pyrimidine]
0.17 | FC(F)Oc1ccc(-c2ccnc3nc(-c4cccnc4)nn23)cc1OC(F)F [Compound 114, 7-(3,4-Bis-difluoromethoxyphenyl)-2-pyridin-3-yl[1,2,4]triazolo[1,5-a]pyrimidine]
0.006 | Nc1cccc(-c2nc3nccc(-c4ccc(OC(F)F)c(OCC5CC5)c4)n3n2)c1 [Compound 119, 2-(3-Aminophenyl)-7-[3-(cyclopropylmethoxy)-4-(difluoromethoxy)phenyl]-[1,2,4]triazolo[1,5-a]pyrimidine]
0.03 | FC(F)Oc1ccc(-c2ccnc3nc(-c4cccc(C(F)(F)F)c4)nn23)cc1OCC1CC1 [Compound 128, 7-[3-(Cyclopropylmethoxy)-4-(difluoromethoxy)phenyl]-2-(3-trifluoromethylphenyl)-[1,2,4]triazolo[1,5-a]pyrimidine]
0.16 | [O-][n+]1ccc(-c2nc3nccc(-c4ccc(OC(F)F)c(OCC5CC5)c4)n3n2)cc1 [Compound 110, 4-[7-{3-(Cyclopropylmethoxy)-4-(difluoromethoxy)phenyl}-[1,2,4]triazolo[1,5-a]pyrimidine-2-yl]-pyridine-N-oxide]
0.035 | CSc1ccc(-c2nc3nccc(-c4ccc(OC(F)F)c(OCC5CC5)c4)n3n2)cc1 [Compound 140, 7-[3-(Cyclopropylmethoxy)-4-(difluoromethoxy)phenyl]-2-(4-methylthiophenyl)-[1,2,4]triazolo[1,5-a]pyrimidine]
0.05 | Cc1ccc(-c2nc3nccc(-c4ccc(OC(F)F)c(OCC5CC5)c4)n3n2)cc1 [Compound 113, 7-[3-(Cyclopropylmethoxy)-4-(difluoromethoxy)phenyl]-2-p-tolyl-[1,2,4]triazolo[1,5-a]pyrimidine]
0.05 | N#Cc1ccc(-c2nc3nccc(-c4ccc(OC(F)F)c(OCC5CC5)c4)n3n2)cc1 [Compound 117, 2-(4-Cyanophenyl)-7-[3-(cyclopropylmethoxy)-4-(difluoromethoxy)phenyl]-[1,2,4]triazolo[1,5-a]pyrimidine]
0.046 | NC(=O)c1ccc(-c2nc3nccc(-c4ccc(OC(F)F)c(OCC5CC5)c4)n3n2)cn1 [Compound 139, 5-[7-{3-(cyclopropylmethoxy)-4-(difluoromethoxy)phenyl}-[1,2,4]triazolo[1,5-a]pyrimidin-2-yl]pyridine-2-carboxamide]
0.16 | FC(F)Oc1ccc(-c2ccnc3nc(-c4ccc(Cl)nc4)nn23)cc1OCC1CC1 [Compound 104, 2-(6-chloropyridin-3-yl)-7-[3-(cyclopropylmethoxy)-4-(difluoromethoxy)phenyl]-[1,2,4]triazolo[1,5-a]pyrimidine]

SMILES | IC50 [µM]
COc1ccc(-c2ccnc3nc(-c4cccnc4)nn23)cc1OC1CCCC1 [Compound 135, 7-[3-(Cyclopentoxy)-4-methoxyphenyl]-2-(3-pyridyl)-[1,2,4]triazolo[1,5-a]pyrimidine] | 0.05

same assay, conditions: comment on Table 2

activity on inhibiting PDE-4 (in words) | SMILES
most excellent activity | FC(F)Oc1ccc(-c2ccnc3nc(-c4cccc(I)c4)nn23)cc1OCC1CC1 [Compound 126, 7-[3-(Cyclopropylmethoxy)-4-(difluoromethoxy)phenyl]-2-(3-iodophenyl)-[1,2,4]triazolo[1,5-a]pyrimidine]
excellent activity on inhibiting PDE-4 | COc1cccc(-c2nc3nccc(-c4ccc(OC(F)F)c(OCC5CC5)c4)n3n2)c1 [Compound 107, 7-[3-(Cyclopropylmethoxy)-4-(difluoromethoxy)phenyl]-2-(3-methoxyphenyl)-[1,2,4]triazolo[1,5-a]pyrimidine]
excellent activity on inhibiting PDE-4 | FC(F)Oc1ccc(-c2ccnc3nc(-c4cccc(Br)c4)nn23)cc1OCC1CC1 [Compound 121, 2-(3-Bromophenyl)-7-[3-(cyclopropylmethoxy)-4-(difluoromethoxy)phenyl]-[1,2,4]triazolo[1,5-a]pyrimidine]
excellent activity on inhibiting PDE-4 | Nc1cccc(-c2nc3nccc(-c4ccc(OC(F)F)c(OCC5CC5)c4)n3n2)c1 [Compound 119, 2-(3-Aminophenyl)-7-[3-(cyclopropylmethoxy)-4-(difluoromethoxy)phenyl]-[1,2,4]triazolo[1,5-a]pyrimidine]
